Results from ChEMBL document CHEMBL4831531, “Mangostanin Derivatives as Novel and Orally Active Phosphodiesterase 4 Inhibitors for the Treatment of Idiopathic Pulmonary Fibrosis with Improved Safety” (J Med Chem, 2021).
Active and inactive are the calls of the source. No cut-off for these calls is given here.

tested on: Rattus norvegicus; experiment: Anti-idiopathic pulmonary fibrotic activity in bleomycin-induced Sprague-Dawley rat model assessed as inhibition of collagen deposition around trachea and cell hyperplasia at 150 mg/kg, po treated for 28 consecutive days by Hematoxylin and eosin staining based assay relative to control; type: functional; conditions: not given

For `Cc1ccc(=O)n(-c2ccccc2)c1` [PIRFENIDONE], the inhibition in vivo at 150 mg/kg was 100%.

tested on: Rattus norvegicus; experiment: Anti-idiopathic pulmonary fibrotic activity in bleomycin-induced Sprague-Dawley rat model assessed as decrease in alpha-smooth muscle actin protein expression of lungs at 150 mg/kg, po treated for 28 consecutive days by Western blot analysis; type: functional, organism-based; conditions: not given

In the case of `Cc1ccc(=O)n(-c2ccccc2)c1` [PIRFENIDONE], the Activity is reported as “Active”.

tested on: Rattus norvegicus; experiment: Anti-idiopathic pulmonary fibrotic activity in bleomycin-induced Sprague-Dawley rat model assessed as decrease in fibronectin expression of lungs at 150 mg/kg, po treated for 28 consecutive days by Western blot analysis; type: functional, organism-based; conditions: not given

In the case of `Cc1ccc(=O)n(-c2ccccc2)c1` [PIRFENIDONE], the Activity is reported as “Active”.

tested on: Rattus norvegicus; experiment: Anti-idiopathic pulmonary fibrotic activity in bleomycin-induced Sprague-Dawley rat model assessed as prevention of structural damage of lungs at 150 mg/kg, po treated for 28 consecutive days by Hematoxylin and eosin staining based assay relative to control; type: functional, organism-based; conditions: not given

For `Cc1ccc(=O)n(-c2ccccc2)c1` [PIRFENIDONE], the Activity was “Active”.

target: 3',5'-cyclic-AMP phosphodiesterase 4D (Homo sapiens, UniProt Q08499); experiment: Inhibition of PDE4D2 (86-413) (unknown origin) expressed in Escherichia coli BL21 assessed as using [3H]-cAMP as substrate measured for 15 mins by liquid scintillation counting analysis; conditions: not given
Sequence (Q08499 whole entry): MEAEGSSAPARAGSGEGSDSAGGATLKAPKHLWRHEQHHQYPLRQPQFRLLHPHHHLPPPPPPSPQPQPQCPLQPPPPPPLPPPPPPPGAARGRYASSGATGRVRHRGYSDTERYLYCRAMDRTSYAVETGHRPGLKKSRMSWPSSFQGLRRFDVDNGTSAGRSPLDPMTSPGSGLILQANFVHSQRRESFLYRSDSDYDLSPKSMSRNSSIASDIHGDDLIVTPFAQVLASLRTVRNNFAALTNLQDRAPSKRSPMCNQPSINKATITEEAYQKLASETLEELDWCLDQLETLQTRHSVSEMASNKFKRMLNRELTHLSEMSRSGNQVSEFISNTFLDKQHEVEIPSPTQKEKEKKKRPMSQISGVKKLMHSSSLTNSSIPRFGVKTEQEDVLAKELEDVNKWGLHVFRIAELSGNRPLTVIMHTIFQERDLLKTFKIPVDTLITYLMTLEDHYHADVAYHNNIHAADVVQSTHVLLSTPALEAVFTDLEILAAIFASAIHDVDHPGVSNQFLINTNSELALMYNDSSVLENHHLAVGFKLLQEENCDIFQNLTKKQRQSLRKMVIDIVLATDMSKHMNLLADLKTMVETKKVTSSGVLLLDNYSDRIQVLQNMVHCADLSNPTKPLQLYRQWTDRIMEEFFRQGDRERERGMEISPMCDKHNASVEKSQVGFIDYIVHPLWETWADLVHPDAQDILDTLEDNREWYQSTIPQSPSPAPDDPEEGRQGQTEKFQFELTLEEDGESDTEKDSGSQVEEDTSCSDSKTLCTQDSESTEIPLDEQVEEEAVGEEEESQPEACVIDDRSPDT

Point of comparison: `COc1cccc(COc2cc3oc4cc5c(c(OC/C=C/C(=O)O)c4c(=O)c3c(CC=C(C)C)c2OC)C=CC(C)(C)O5)c1`, IC50 16 nM. Against it:
- COc1c(O)cc2oc3cc4c(c(OC/C=C/C(=O)O)c3c(=O)c2c1CC=C(C)C)C=CC(C)(C)O4 — 31-fold higher, 494 nM
- CCOC(=O)/C=C/COc1c2c(cc3oc4cc(OCc5ccc(F)cc5)c(OC)c(CC=C(C)C)c4c(=O)c13)OC(C)(C)C=C2 — 1.5-fold higher, 24 nM
- CCOC(=O)/C=C/COc1c2c(cc3oc4cc(OCc5cccc(F)c5)c(OC)c(CC=C(C)C)c4c(=O)c13)OC(C)(C)C=C2 — 2.5-fold lower, 6.5 nM
- COc1c(OCc2cccc(F)c2)cc2oc3cc4c(c(OC/C=C/C(=O)O)c3c(=O)c2c1CC=C(C)C)C=CC(C)(C)O4 — higher, > 1000 nM
- COc1cc2oc3cc4c(c(OC/C=C/C(=O)O)c3c(=O)c2c(CC=C(C)C)c1OC)C=CC(C)(C)O4 — 1.9-fold higher, 30 nM
- COc1c(O)cc2oc3cc4c(c(OCCCCCCC(=O)O)c3c(=O)c2c1CC=C(C)C)C=CC(C)(C)O4 — 19-fold higher, 300 nM
- COc1c(O)cc2oc3cc4c(c(OCCCCCC(=O)O)c3c(=O)c2c1CC=C(C)C)C=CC(C)(C)O4 — 1.6-fold higher, 25 nM
- COc1c(O)cc2oc3cc4c(c(OCC(=O)O)c3c(=O)c2c1CC=C(C)C)C=CC(C)(C)O4 — within 1.5-fold, 17 nM
- COc1c(OCc2cccc(C)c2)cc2oc3cc4c(c(OC/C=C/C(=O)O)c3c(=O)c2c1CC=C(C)C)C=CC(C)(C)O4 — higher, > 1000 nM
- COc1c(OCCCCCCC(=O)O)cc2oc3cc4c(c(O)c3c(=O)c2c1CC=C(C)C)C=CC(C)(C)O4 — within 1.5-fold, 19 nM
- COc1c(OC(C)C)cc2oc3cc4c(c(OC/C=C/C(=O)O)c3c(=O)c2c1CC=C(C)C)C=CC(C)(C)O4 — 1.9-fold higher, 31 nM
- COc1c(OCc2ccccc2)cc2oc3cc4c(c(OC/C=C/C(=O)O)c3c(=O)c2c1CC=C(C)C)C=CC(C)(C)O4 — 1.5-fold higher, 24 nM
- COc1c(OCc2ccc(F)cc2)cc2oc3cc4c(c(OCCCC(=O)O)c3c(=O)c2c1CC=C(C)C)C=CC(C)(C)O4 — 3.8-fold lower, 4.2 nM
- COc1c(OCc2ccc(F)cc2)cc2oc3cc4c(c(OC/C=C\C(=O)O)c3c(=O)c2c1CC=C(C)C)C=CC(C)(C)O4 — within 1.5-fold, 20 nM
- COc1c(O)cc2oc3cc4c(c(OCCCCC(=O)O)c3c(=O)c2c1CC=C(C)C)C=CC(C)(C)O4 — 1.5-fold higher, 24 nM
- CCOc1cc2oc3cc4c(c(OC/C=C/C(=O)O)c3c(=O)c2c(CC=C(C)C)c1OC)C=CC(C)(C)O4 — 3-fold higher, 48 nM
- COc1c(OCc2ccc(S(C)(=O)=O)cc2)cc2oc3cc4c(c(OC/C=C/C(=O)O)c3c(=O)c2c1CC=C(C)C)C=CC(C)(C)O4 — within 1.5-fold, 18 nM
- COc1c(O)cc2oc3cc4c(c(OCCCC(=O)O)c3c(=O)c2c1CC=C(C)C)C=CC(C)(C)O4 — higher, > 1000 nM

tested on: not listed separately; experiment: Toxicity in dog assessed as emesis at 1 mg/kg, po; type: organism-based, Canis lupus familiaris; conditions: in vivo

With `COc1ccc(C2CNC(=O)C2)cc1OC1CCCC1` (stereo not given) [ROLIPRAM] the Activity was “Toxic”.

tested on: Rattus norvegicus; experiment: Anti-inflammatory activity in bleomycin-induced idiopathic pulmonary fibrotic activity Sprague-Dawley rat model assessed as decrease in NO production in lungs at 150 mg/kg, po treated for 28 consecutive days; type: functional, organism-based; conditions: not given

In the case of `Cc1ccc(=O)n(-c2ccccc2)c1` [PIRFENIDONE], the Activity is reported as “Active”.
